A word on the IC50: it is the concentration that inhibits the measured activity by half. The term Kd denotes the equilibrium constant for the complex coming apart. By ΔTm is commonly meant the shift of the melting midpoint relative to a reference.

Read-outs that look alike come from different tables or passages of the source.

These results are taken from PMC6172212, “Structural Analysis of Inhibitor Binding to CAMKK1 Identifies Features Necessary for Design of Specific Inhibitors” (Scientific Reports, 2018).

Assay [1] deals with T1, full length CAMKK1 (CAMKK1-FL) (Homo sapiens, UniProt Q8N5S9).
T1 construct: made in house; host or cells: Spodoptera frugiperda Sf9 insect cells (baculovirus)
In words: IC50 determination by TR-FRET enzymatic assay with CAMKK1-FL in the presence of Ca2+/calmodulin. It counts as biochemical. The protocol:
Final assay concentrations of the components of the enzyme mix were 5 nM CAMKK1-FL, 1 µM calmodulin, 1 mM CaCl2, 5 mM MgCl2, 1 mM DTT. Final concentrations of ATP and peptide were 100 µM ATP, 1 µM peptide (STK substrate S1). The inhibitor solutions were prepared starting from 10 mM solutions in DMSO, diluted in enzymatic assay buffer to 200 or 100 µM, and then a 2x serial dilution in enzymatic assay buffer was performed, yielding the serially diluted inhibitors at 2.5x final concentration. […] For detection, 5 µL of streptavidin-XL665, and 5 µL of antibody-Eu-cryptate were added. […] Data was analysed in GraphPad PRISM version 7.
A general note: Time-resolved FRET reads energy transfer from a long-lived donor to a nearby acceptor.

The target of assay [2] is T2, CAMKK1 kinase domain (CAMKK1-KD) (Homo sapiens, UniProt Q8N5S9).
T2 construct: The kinase domain (Gln124 to Lys411) was amplified using the primers; 6xHis (TEV-cleavable) (N, cleaved yes); made in house; host or cells: Escherichia coli BL21(DE3)-R3 co-expressing λ-phosphatase
T2 sequence (Q8N5S9 124-411): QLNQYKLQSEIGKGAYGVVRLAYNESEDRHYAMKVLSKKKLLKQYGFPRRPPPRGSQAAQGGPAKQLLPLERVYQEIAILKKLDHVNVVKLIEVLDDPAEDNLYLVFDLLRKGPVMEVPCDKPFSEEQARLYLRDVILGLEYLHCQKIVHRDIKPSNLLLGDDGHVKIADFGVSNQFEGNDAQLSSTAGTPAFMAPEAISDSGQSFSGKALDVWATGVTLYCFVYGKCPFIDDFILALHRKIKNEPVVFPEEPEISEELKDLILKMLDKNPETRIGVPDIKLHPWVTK
Kind of assay: Isothermal titration calorimetry (ITC) with CAMKK1-KD. It counts as binding. The note with it: for ΔH: ITC at 20 °C, binding enthalpy. The protocol:
Measurements were made using a MicroCal AutoiITC200 (Malvern, United Kingdom), at 20 °C with 1000 rpm stirring. For all measurements CAMKK1-KD protein was dialysed overnight against gel filtration buffer, and the dialysis buffer was used to dilute the inhibitors. CAMKK1-KD protein was titrated into a solution containing the inhibitor. […] ITC data was analysed with NITPIC, and SEDPHAT; figures were made using GUSSI[30].

For assay [3], the target named is T3, CAMKK1 kinase domain (CAMKK1-KD, Gln124-Lys411) (Homo sapiens, UniProt Q8N5S9).
T3 construct: The kinase domain (Gln124 to Lys411) was amplified using the primers; 6xHis (TEV-cleavable) (N, cleaved yes); made in house; host or cells: Escherichia coli BL21(DE3)-R3 co-expressing λ-phosphatase
T3 sequence (Q8N5S9 124-411): as above
In words: Differential scanning fluorimetry (DSF) screen of a kinase inhibitor library against CAMKK1-KD. It counts as binding. The protocol: DSF measurements were made in a 384-well plate.
The compounds, previously solubilized in DMSO, were used at 10 µM final concentration and 0.1% DMSO. Plates were sealed using optically clear films and transferred to a QuantStudio 6 qPCR instrument (Applied Biosystems). […] Protein in 0.1% DMSO was used as a reference.
For orientation: DSF heats the sample and reads unfolding from a dye or from intrinsic fluorescence.

In a further assay the test system is CAMKK1. The arrangement: concentration or dose not given beside the values. The settings on record: supplement; ref Anastassiadis et al. (2011); cited from earlier work.
A further assay relates to CAMKK2. On the set-up: concentration or dose not given beside the values. The note with it: supplement; ref Anastassiadis et al. (2011); cited from earlier work.
[4] abbreviates: DSF, 1 μM CAMKK1-KD, compound 10 µM, mean and standard error from triplicate measurements, read-out: ΔTm (°C) CAMKK1.
[5] abbreviates: DSF, CAMKK1-KD, compound 10 µM, repeated in Table 3, read-out: ΔTm (°C).
[6] abbreviates: DSF, 1 μM CAMKK1-KD, compound 10 µM, supplement, read-out: Mean ΔTm (°C).
[7] abbreviates: DSF, 1 μM CAMKK1-KD, compound 10 µM, supplement.

For `COc1cc(N2CCC(N3CCN(C)CC3)CC2)ccc1Nc1ncc(Cl)c(Nc2ccccc2P(C)(C)=O)n1` [AP26113], in assay [1], the IC50 turned out to be 89 nM. Further, in assay [2], binding was characterised by a dissociation constant (Kd) of 45 nM and the “ΔH” value is -9.11 kcal/mol. Besides, the ΔTm at 10 µM in assay [3] (setting [4]) was found to be 8.2 ± 0.6 °C. Moreover, the ΔTm at 10 µM in assay [3] (setting [5]) amounted to 8.2 ± 0.6 °C.
Take `COCCOc1ccc2c(c1)ncn2-c1ccc2cccc(N3CCC(N)CC3)c2n1` [CP-673451]: the IC50 in assay [1] was 101 nM. Further, in assay [2], the Kd was determined as 7 nM. Besides, the ΔTm at 10 µM in assay [3] (setting [4]) and in assay [3] (setting [5]) was 14.4 ± 0.9 °C throughout.
Consider `CC1(COc2ccc3c(c2)ncn3-c2ccc3cccc(N4CCC(N)CC4)c3n2)COC1` [Crenolanib (CP-868596), Crenolanib], for which the IC50 in assay [1] stood at 153 nM. In addition, in assay [2], the Kd amounted to 4 nM and the “ΔH” value is -10.9 kcal/mol. The ΔTm at 10 µM in assay [3] (setting [4]) worked out at 13.6 ± 0.6 °C. The ΔTm at 10 µM in assay [3] (setting [5]) is 13.6 ± 0.6 °C.
Turning to `CN1CCN(c2ccc3nc(-c4c(N)c5c(F)cccc5[nH]c4=O)[nH]c3c2)CC1` [Dovitinib (TKI-258) Dilactic Acid, Dovitinib], in the assay with CAMKK1, the “Remaining activity (%) from Anastassiadis et al. (2011) CAMKK1” value (“Remaining activity (%) … (2011) CAMKK1” below) is on record as 49%. In addition, in assay [3] (setting [6]), the ΔTm at 10 µM came to 5.7 °C. Also, in the assay with CAMKK2, the “Remaining activity (%) from Anastassiadis et al. (2011) CAMKK2” value (shortened to “Remaining activity (%) … (2011) CAMKK2”) is recorded as 86%.
On to `O=C(O)c1ccc(-c2c[nH]c3ncc(-c4ccccc4)cc23)cc1C1CCCC1` [GSK650394], for which, in assay [2], the “ΔH” value was -20.5 kcal/mol. Further, the ΔTm at 10 µM in assay [3] (setting [4]) and in assay [3] (setting [5]) was 16.1 ± 0.8 °C in each case.
`CCS(=O)(=O)Nc1ccc2c(c1)/C(=C(/Nc1ccc(CN3CCCCC3)cc1)c1ccccc1)C(=O)N2` [Hesperadin]: in assay [1], the IC50 was found to be 107 nM. Moreover, in assay [2], binding was put at a Kd of 26 nM and the “ΔH” value is -14.1 kcal/mol. In assay [3] (setting [4]), the ΔTm at 10 µM is 7 ± 0.8 °C. Also, the ΔTm at 10 µM in assay [3] (setting [5]) is 7 ± 0.8 °C.
Regarding `Cc1ccc(Nc2nccc(N(C)c3ccc4c(C)n(C)nc4c3)n2)cc1S(N)(=O)=O` [Pazopanib], the “Remaining activity (%) … (2011) CAMKK1” value in the assay on CAMKK1 was 72%. For the same compound, the “Remaining activity (%) … (2011) CAMKK2” value in the assay with CAMKK2 is 98%.
On to `CNC(=O)c1cc(Oc2ccc(NC(=O)Nc3ccc(Cl)c(C(F)(F)F)c3)cc2)ccn1` [Sorafenib], for which the “Remaining activity (%) … (2011) CAMKK1” value with CAMKK1 is given as 103%. The ΔTm at 10 µM in assay [3] (read-out: Mean ΔTm (°C)) amounted to 2.5 °C. Moreover, in the assay on CAMKK2, the “Remaining activity (%) … (2011) CAMKK2” value is 103%.
Take `CCN(CC)CCNC(=O)c1c(C)[nH]c(/C=C2\C(=O)Nc3ccc(F)cc32)c1C` [Sunitinib Malate]: the “Remaining activity (%) … (2011) CAMKK1” value in the assay on CAMKK1 is listed as 52%. Also, the “Remaining activity (%) … (2011) CAMKK2” value with CAMKK2 is given as 65%.
For `Cc1cnc(Nc2ccc(OCCN3CCCC3)cc2)nc1Nc1cccc(S(=O)(=O)NC(C)(C)C)c1` [TG101348 (SAR302503)], in assay [3] (setting [6]), the ΔTm at 10 µM is 3.4 °C.
As for `Cc1[nH]c(/C=C2\C(=O)Nc3ccccc32)c(C)c1CCC(=O)O` [TSU-68 (SU6668)], the ΔTm at 10 µM in assay [3] (setting [6]) came out at 4.9 °C.
Turning to `COc1cc2c(N3CCN(C(=O)Nc4ccc(OC(C)C)cc4)CC3)ncnc2cc1OCCCN1CCCCC1` [Tandutinib (MLN518), Tandutinib], the ΔTm at 10 µM in assay [3] (setting [6]) was found to be 2.3 °C.
For the compound `O=C(NCc1ccccc1)c1csc(Nc2ccncn2)n1` [Thiazovivin], the “Mean ΔTm (°C)” value in assay [3] (setting [7]) worked out at 3.0 °C.
As for `COc1cc2nccc(Oc3ccc(NC(=O)Nc4cc(C)on4)c(Cl)c3)c2cc1OC` [Tivozanib (AV-951), Tivozanib], the ΔTm at 10 µM in assay [3] (setting [4]) came out at 2.6 ± 3.1 °C.
With `Cc1cc(Nc2cc(N3CCN(C)CC3)nc(Sc3ccc(NC(=O)C4CC4)cc3)n2)[nH]n1` [VX-680 (Tozasertib), Tozasertib], the “Remaining activity (%) … (2011) CAMKK1” value in the assay on CAMKK1 was 86%. In addition, the ΔTm at 10 µM in assay [3] (setting [6]) was 3.4 °C.
As for `COc1cc2c(Nc3ccc(Br)cc3F)ncnc2cc1OCC1CCN(C)CC1` [Vandetanib (ZD6474), Vandetanib], in the assay on CAMKK1, the “Remaining activity (%) … (2011) CAMKK1” value was 90%. Also, in the assay on CAMKK2, the “Remaining activity (%) … (2011) CAMKK2” value is reported as 102%.
Consider `CC[C@@H]1C(=O)N(C)c2cnc(Nc3ccc(C(=O)N[C@H]4CC[C@H](N5CCN(CC6CC6)CC5)CC4)cc3OC)nc2N1C(C)C` [Volasertib (BI 6727), Volasertib], for which the ΔTm at 10 µM in assay [3] (setting [4]) came out at 7.7 ± 0.8 °C.
Take `C=CC(=O)Nc1cccc(Oc2nc(Nc3ccc(N4CCN(C)CC4)cc3)ncc2Cl)c1` [WZ3146]: the “Mean ΔTm (°C)” value in assay [3] (setting [7]) amounted to 3.1 °C.
Turning to `C=CC(=O)Nc1cccc(Sc2nc(Nc3ccc(N4CCN(C)CC4)cc3)ncc2Cl)c1` [WZ8040], the “Mean ΔTm (°C)” value in assay [3] (setting [7]) turned out to be 4.1 °C.
Consider `COc1ccc(Cl)c(Nc2nc3ccccc3nc2NS(=O)(=O)c2cccc(NC(=O)C(C)(C)N)c2)c1` [XL147], for which the thermal shift (ΔTm) at 10 µM in assay [3] (setting [6]) is 4.1 °C.
`COc1cc2c(Nc3ccc(NC(=O)c4ccccc4)cc3)ncnc2cc1OCCCN1CCOCC1` [ZM 447439]: the “Mean ΔTm (°C)” value in assay [3] (setting [7]) was 2.0 °C.
Same read-out and setting: the result for AZD4547 reads 5.9 °C.
